Measured values published in PubChem BioAssay (NCI).
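Dose response: 5 concentrations. Exposure: 48 h. Format: 96-well plates. Endpoint: linear interpolation; highest concentration if not reached. GI50: concentration for 50% inhibition of growth. TGI: concentration producing complete growth inhibition.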

What was measured:
Test in all cases: NCI-60 cell line screen, 48 h
786-0 renal = tested on: 786-0 renal
A498 renal = tested on: A498 renal
A549 NSCLC = tested on: A549 NSCLC
ACHN renal = tested on: ACHN renal
BT-549 breast = tested on: BT-549 breast
CAKI-1 renal = tested on: CAKI-1 renal
CCRF-CEM leukemia = tested on: CCRF-CEM leukemia
COLO 205 colon = tested on: COLO 205 colon
DU-145 prostate = tested on: DU-145 prostate
EKVX NSCLC = tested on: EKVX NSCLC
HCC-2998 colon = tested on: HCC-2998 colon
HCT-116 colon = tested on: HCT-116 colon
HCT-15 colon = tested on: HCT-15 colon
HL-60(TB) leukemia = tested on: HL-60(TB) leukemia
HOP-62 NSCLC = tested on: HOP-62 NSCLC
HOP-92 NSCLC = tested on: HOP-92 NSCLC
HS 578T breast = tested on: HS 578T breast
HT29 colon = tested on: HT29 colon
IGROV1 ovarian = tested on: IGROV1 ovarian
K-562 leukemia = tested on: K-562 leukemia
KM12 colon = tested on: KM12 colon
LOX IMVI melanoma = tested on: LOX IMVI melanoma
M14 melanoma = tested on: M14 melanoma
MALME-3M melanoma = tested on: MALME-3M melanoma
MCF7 breast = tested on: MCF7 breast
MDA-MB-231 breast = tested on: MDA-MB-231 breast
MDA-MB-435 = tested on: MDA-MB-435
MOLT-4 leukemia = tested on: MOLT-4 leukemia
NCI-H226 lung = tested on: NCI-H226 lung
NCI-H23 lung = tested on: NCI-H23 lung
NCI-H460 lung = tested on: NCI-H460 lung
NCI-H522 lung = tested on: NCI-H522 lung
NCI/ADR-RES ovarian = tested on: NCI/ADR-RES ovarian
OVCAR-3 ovarian = tested on: OVCAR-3 ovarian
OVCAR-4 ovarian = tested on: OVCAR-4 ovarian
OVCAR-5 ovarian = tested on: OVCAR-5 ovarian
OVCAR-8 ovarian = tested on: OVCAR-8 ovarian
PC-3 prostate = tested on: PC-3 prostate
RPMI-8226 leukemia = tested on: RPMI-8226 leukemia
RXF 393 renal = tested on: RXF 393 renal
SF-268 CNS = tested on: SF-268 CNS
SF-295 CNS = tested on: SF-295 CNS
SF-539 CNS = tested on: SF-539 CNS
SK-MEL-2 melanoma = tested on: SK-MEL-2 melanoma
SK-MEL-28 melanoma = tested on: SK-MEL-28 melanoma
SK-MEL-5 melanoma = tested on: SK-MEL-5 melanoma
SK-OV-3 ovarian = tested on: SK-OV-3 ovarian
SN12C renal = tested on: SN12C renal
SNB-19 CNS = tested on: SNB-19 CNS
SNB-75 CNS = tested on: SNB-75 CNS
SR leukemia = tested on: SR leukemia
SW-620 colon = tested on: SW-620 colon
T-47D breast = tested on: T-47D breast
TK-10 renal = tested on: TK-10 renal
U251 CNS = tested on: U251 CNS
UACC-257 melanoma = tested on: UACC-257 melanoma
UACC-62 melanoma = tested on: UACC-62 melanoma
UO-31 renal = tested on: UO-31 renal
MDA-N = tested on: MDA-N

CCOC(=O)CNC(=O)c1ccccc1Nc1ccnc(C(F)(F)F)c1
GI50 (786-0 renal): 52.6 µM
TGI (786-0 renal): > 90 µM
GI50 (A498 renal): 64 µM
TGI (A498 renal): > 100 µM
GI50 (A549 NSCLC): > 53.5 µM
TGI (A549 NSCLC): > 100 µM
GI50 (ACHN renal): > 58.2 µM
TGI (ACHN renal): > 100 µM
GI50 (BT-549 breast): 42 µM
TGI (BT-549 breast): > 100 µM
GI50 (CAKI-1 renal): 20.9 µM
TGI (CAKI-1 renal): > 62.5 µM
GI50 (CCRF-CEM leukemia): 7.97 µM
TGI (CCRF-CEM leukemia): > 37.9 µM
GI50 (COLO 205 colon): 17.8 µM
TGI (COLO 205 colon): > 67.2 µM
GI50 (DU-145 prostate): 46.9 µM
TGI (DU-145 prostate): 99.8 µM
GI50 (EKVX NSCLC): 30.6 µM
TGI (EKVX NSCLC): > 96 µM
GI50 (HCC-2998 colon): 71.3 µM
TGI (HCC-2998 colon): > 100 µM
GI50 (HCT-116 colon): 30.5 µM
TGI (HCT-116 colon): > 69.8 µM
GI50 (HCT-15 colon): > 54.6 µM
TGI (HCT-15 colon): > 100 µM
GI50 (HL-60(TB) leukemia): 33.2 µM
TGI (HL-60(TB) leukemia): > 100 µM
GI50 (HOP-62 NSCLC): 39.6 µM
TGI (HOP-62 NSCLC): > 69.6 µM
GI50 (HOP-92 NSCLC): 57.2 nM
TGI (HOP-92 NSCLC): 7.62 µM
GI50 (HS 578T breast): 45.5 µM
TGI (HS 578T breast): > 100 µM
GI50 (HT29 colon): 44.4 µM
TGI (HT29 colon): > 100 µM
GI50 (IGROV1 ovarian): 32.2 µM
TGI (IGROV1 ovarian): > 65.7 µM
GI50 (K-562 leukemia): 24 µM
TGI (K-562 leukemia): > 69.4 µM
GI50 (KM12 colon): 30.2 µM
TGI (KM12 colon): > 86 µM
GI50 (LOX IMVI melanoma): 17.5 µM
TGI (LOX IMVI melanoma): 36.2 µM
GI50 (M14 melanoma): 38.1 µM
TGI (M14 melanoma): > 74.9 µM
GI50 (MALME-3M melanoma): 34.1 µM
TGI (MALME-3M melanoma): > 88.8 µM
GI50 (MCF7 breast): 38.8 µM
TGI (MCF7 breast): > 89.1 µM
GI50 (MDA-MB-231 breast): 33.4 µM
TGI (MDA-MB-231 breast): > 73.1 µM
GI50 (MDA-MB-435): 36.9 µM
TGI (MDA-MB-435): > 100 µM
GI50 (MOLT-4 leukemia): 17.7 µM
TGI (MOLT-4 leukemia): 54.3 µM
GI50 (NCI-H226 lung): > 100 µM
TGI (NCI-H226 lung): > 100 µM
GI50 (NCI-H23 lung): 31.5 µM
TGI (NCI-H23 lung): > 71.8 µM
GI50 (NCI-H460 lung): 29.8 µM
TGI (NCI-H460 lung): > 68.1 µM
GI50 (NCI-H522 lung): 27.8 µM
TGI (NCI-H522 lung): > 70.5 µM
GI50 (NCI/ADR-RES ovarian): > 71.5 µM
TGI (NCI/ADR-RES ovarian): > 100 µM
GI50 (OVCAR-3 ovarian): 20.2 µM
TGI (OVCAR-3 ovarian): 56.9 µM
GI50 (OVCAR-4 ovarian): 43.7 µM
TGI (OVCAR-4 ovarian): > 100 µM
GI50 (OVCAR-5 ovarian): > 51.1 µM
TGI (OVCAR-5 ovarian): > 100 µM
GI50 (OVCAR-8 ovarian): > 50.8 µM
TGI (OVCAR-8 ovarian): > 82.8 µM
GI50 (PC-3 prostate): 25.4 µM
TGI (PC-3 prostate): > 95.5 µM
GI50 (RPMI-8226 leukemia): 12.7 µM
TGI (RPMI-8226 leukemia): 35.1 µM
GI50 (RXF 393 renal): 31.3 µM
TGI (RXF 393 renal): > 64.4 µM
GI50 (SF-268 CNS): 35.7 µM
TGI (SF-268 CNS): > 71.6 µM
GI50 (SF-295 CNS): 54.4 µM
TGI (SF-295 CNS): > 100 µM
GI50 (SF-539 CNS): 28 µM
TGI (SF-539 CNS): > 100 µM
GI50 (SK-MEL-2 melanoma): 44.6 µM
TGI (SK-MEL-2 melanoma): > 72.4 µM
GI50 (SK-MEL-28 melanoma): 28.1 µM
TGI (SK-MEL-28 melanoma): > 83.3 µM
GI50 (SK-MEL-5 melanoma): 14.8 µM
TGI (SK-MEL-5 melanoma): 40.4 µM
GI50 (SK-OV-3 ovarian): > 59.5 µM
TGI (SK-OV-3 ovarian): > 100 µM
GI50 (SN12C renal): 36.6 µM
TGI (SN12C renal): > 79.4 µM
GI50 (SNB-19 CNS): 34.2 µM
TGI (SNB-19 CNS): > 100 µM
GI50 (SNB-75 CNS): > 100 µM
TGI (SNB-75 CNS): > 100 µM
GI50 (SR leukemia): 19 µM
TGI (SR leukemia): 57.8 µM
GI50 (SW-620 colon): 29.9 µM
TGI (SW-620 colon): > 74.4 µM
GI50 (T-47D breast): 41.9 µM
TGI (T-47D breast): > 100 µM
GI50 (TK-10 renal): 41.6 µM
TGI (TK-10 renal): > 100 µM
GI50 (U251 CNS): 34.3 µM
TGI (U251 CNS): > 62.1 µM
GI50 (UACC-257 melanoma): 68.7 µM
TGI (UACC-257 melanoma): > 100 µM
GI50 (UACC-62 melanoma): 22.4 µM
TGI (UACC-62 melanoma): > 61.2 µM
GI50 (UO-31 renal): 24.4 µM
TGI (UO-31 renal): > 59.5 µM

O=C(O)CC[N+]1=CCC(c2ccccc2)(c2ccccc2)O1
TGI (786-0 renal): > 100 µM
TGI (A498 renal): > 100 µM
TGI (A549 NSCLC): > 100 µM
TGI (ACHN renal): > 100 µM
TGI (BT-549 breast): > 100 µM
TGI (CAKI-1 renal): > 100 µM
TGI (COLO 205 colon): > 100 µM
TGI (DU-145 prostate): > 100 µM
TGI (EKVX NSCLC): > 100 µM
TGI (HCC-2998 colon): > 100 µM
TGI (HCT-116 colon): > 100 µM
TGI (HCT-15 colon): > 100 µM
TGI (HOP-62 NSCLC): > 100 µM
TGI (HOP-92 NSCLC): > 100 µM
TGI (HS 578T breast): > 100 µM
TGI (HT29 colon): > 100 µM
TGI (IGROV1 ovarian): > 100 µM
TGI (K-562 leukemia): > 100 µM
TGI (M14 melanoma): > 100 µM
TGI (MCF7 breast): > 100 µM
TGI (MDA-MB-231 breast): > 100 µM
TGI (MDA-MB-435): > 100 µM
TGI (MDA-N): > 100 µM
TGI (MOLT-4 leukemia): > 100 µM
TGI (NCI-H226 lung): > 100 µM
TGI (NCI-H23 lung): > 100 µM
TGI (NCI-H460 lung): > 100 µM
TGI (NCI-H522 lung): > 100 µM
TGI (OVCAR-3 ovarian): > 100 µM
TGI (OVCAR-4 ovarian): > 100 µM
TGI (OVCAR-5 ovarian): > 100 µM
TGI (OVCAR-8 ovarian): > 100 µM
TGI (PC-3 prostate): > 100 µM
TGI (RXF 393 renal): > 100 µM
TGI (SF-268 CNS): > 100 µM
TGI (SF-295 CNS): > 100 µM
TGI (SF-539 CNS): > 100 µM
TGI (SK-MEL-2 melanoma): > 100 µM
TGI (SK-MEL-28 melanoma): > 100 µM
TGI (SK-MEL-5 melanoma): > 100 µM
TGI (SK-OV-3 ovarian): > 100 µM
TGI (SN12C renal): > 100 µM
TGI (SNB-19 CNS): > 100 µM
TGI (SNB-75 CNS): > 100 µM
TGI (SW-620 colon): > 100 µM
TGI (T-47D breast): > 100 µM
TGI (TK-10 renal): > 100 µM
TGI (U251 CNS): > 100 µM
TGI (UACC-257 melanoma): > 100 µM
TGI (UACC-62 melanoma): > 100 µM
TGI (UO-31 renal): > 100 µM
